Measurements: patent publication US7390642B2, “Salutaridinol 7-O-acetyltransferase and derivatives thereof” (priority 2001, dated 2008)
Like-named read-outs stand apart in the source and are kept apart here.

How the values were obtained:
[1] = biological target: T1, salutaridinol 7-O-acetyltransferase (Papaver somniferum, UniProt Q94FT4)
[2] = system: CC(=O)SCCNC(=O)CCNC(=O)[C@H](O)C(C)(C)COP(=O)(O)OP(=O)(O)OC[C@H]1O[C@@H](n2cnc3c(N)ncnc32)[C@H](O)[C@@H]1OP(=O)(O)O; assay: purified protein, by the assay type
[3] = system: COC1=C[C@]23CCN(C)[C@H](Cc4ccc(OC)c(O)c42)C3=C[C@@H]1O; assay: purified protein, by the assay type; details: other: fixed concentration of acetyl CoA of 30 mm; recombinant enzyme
[4] = biological target: T1, salutaridinol 7-O-acetyltransferase; assay: Inhibition of enzyme activity by covalent modification with diethylpyrocarbonate; type: biochemical, P. somniferum; design: The full-length cDNA generated by RT-PCR was ligated into pFastBac HTa; His tag (N); made in house; host or cells: Spodoptera frugiperda Sf9 cells (baculovirus, pFastBac HTa); purified from culture medium
Text: Sequence Analysis of pSalAT: Translation of the complete nucleotide sequence of salAT yielded a polypeptide of 474 amino acids containing no apparent signal peptide. This is consistent with the cytosolic localization of the enzyme activity (6). The enzyme activity is also operationally found associated with the cytosolic fraction of exuded latex. The salAT amino acid sequence contains residues conserved in other plant acetyltransferases as indicated by the black boxes in FIG. 2 (SEQ. IDs No.7 to 12). The longest contiguous region of conserved amino acids are the five residues DFGWG near the carboxy terminus that were used for primer design and are indicated by an arrow. Conserved histidine and aspartate residues (HXXXD; denoted by # in FIG. 2) thought to be involved in catalysis as characterized by x-ray crystallography for the bacterial enzymes chloramphenicol acetyltransferase and dihydrolipoamide acetyltransferase are also present in salutaridinol 7-O-acetyltransferase (23,24).

[5] = standard assay conditions, acetylation of salutaridinol

COC1=C[C@]23CCN(C)[C@H](Cc4ccc(OC)c(O)c42)C3=C[C@@H]1O [7(R)-salutaridinol]
acetylation at C-7 by the recombinant enzyme (substrate acceptance) ([1]; recombinant enzyme, acetyl CoA): not

COC1=C[C@]23CCN(C)[C@H](Cc4cc5c(cc42)OCO5)C3=C[C@@H]1O [nudaurine]
Vmax (nudaurine) ([1]; nudaurine as substrate): 19 pmol/s
Km ([1]; read-out: apparent Km nudaurine, at 30 mM acetyl CoA): 23 µM
acetylation at C-7 by the recombinant enzyme (substrate acceptance) ([1]; recombinant enzyme, acetyl CoA): acetylated

[3H]C1(O)C=C2C3Cc4ccc(OC)c(O)c4C2(C=C1OC)CCN3C (centres unmarked) [[7-^3H]salutaridinol]
conversion into a product that co-migrated during TLC with authentic thebaine standard ([1]; radioassay of pure, recombinant enzyme): 100%

salutaridinol 7-O-acetyltransferase (Papaver somniferum)
Km ([2]; other: at 10 mM nudaurine): 106 µM
Km ([2]; other: fixed concentration of salutaridinol of 10 mM, recombinant enzyme): 54 µM
Km [3]: 9 µM
Vmax [3]: 25 pmol/s

COC1=C[C@]23CCN(C)[C@H](Cc4ccc(OC)c(O)c42)C3=C[C@@H]1O [salutaridinol, 7(S)-salutaridinol]
ratio kcat/Km (salutaridinol):kcat/Km(nudaurine) ([1]; preference of salutaridinol over nudaurine, factor): 3.3
acetylation at C-7 by the recombinant enzyme (substrate acceptance) ([1]; recombinant enzyme, acetyl CoA, listed as 7(S)-salutaridinol): acetylated

CCOC(=O)OC(=O)OCC [DEPC, diethylpyrocarbonate]
effect of carbethoxylation of histidine residues on enzyme activity [4]: loss of enzyme activity
inhibition at 3000 µM ([4]; 3 mM DEPC): 50%
inhibition at 5000 µM ([4]; 5 mM DEPC): 92%
inactivation of enzyme ([4]; 5 mM DEPC after preincubation of the enzyme with 30 mM acetyl CoA): 46%

CC[C@]12C=CCN3CC[C@@]4(c5ccc(OC)cc5N(C)[C@H]4[C@@](O)(C(=O)OC)[C@@H]1O)[C@@H]32 [deacetylvindoline]
acetylation at C-7 by the recombinant enzyme (substrate acceptance) ([1]; recombinant enzyme, acetyl CoA): not

COC1=C[C@]23CCN(C)[C@H](Cc4ccc(OC)c(O)c42)C3=CC1=O [salutaridine]
acetylation at C-7 by the recombinant enzyme (substrate acceptance) ([1]; recombinant enzyme, acetyl CoA): not

CN1CC[C@]23c4c5ccc(O)c4O[C@H]2[C@@H](O)C=C[C@H]3[C@H]1C5 [morphine]
acetylation at C-7 by the recombinant enzyme (substrate acceptance) [1]: not

B1: recombinant enzyme: P. somniferum salutaridinol 7-O-acetyltransferase, SEQ. ID No. 14, 474 amino acids (protein, listed as Papaver somniferum)
chain: MATMYSAAVEVISKETIKPTTPTPSQLKNFNLSLLDQCFPLYYYVPIILFYPATAANSTGSSNHHDDLDLLKSSLSKTLVHFYPMAGRMIDNILVDCHDQGINFYKVKIRGKMCEFMSQPDVPLSQLLPSEVVSASVPKEALVIVQVNMFDCGGTAICSSVSHKIADAATMSTFIRSWASTTKTSRSGGSTAAVTDQKLIPSFDSASLFPPSERLTSPSGMSEIPFSSTPEDTEDDKTVSKRFVFDFAKITSVREKLQVLMHDNYKSRRQTRVEVVTSLIWKSVMKSTPAGFLPVVHHAVNLRKKMDPPLQDVSFGNLSVTVSAFLPATTTTTTNAVNKTINSTSSESQVVLHELHDFIAQMRSEIDKVKGDKGSLEKVIQNFASGHDASIKKINDVEVINFWISSWCRMGLYEIDFGWGKPIWVTVDPNIKPNKNCFFMNDTKCGEGIEVWASFLEDDMAKFELHLSEILELI
pH optimal range [1, 5]: 7-9
temperature optimum [1, 5]: 47 °C
